Measured values taken from patent US6399577B1, “Compositions and methods using myelin-associated glycoprotein (MAG) and inhibitors thereof” (Research Foundation of CUNY, Hunter College, priority 1995, dated 2002).
Values belong to the molecule of their own block, whether it stands above or below them.

Experiments:
MAG [1] = biological target: T1, MAG (Rattus norvegicus, UniProt P07722); assay: Neurite outgrowth of DRG neurons on MAG-expressing and control CHO cells: reversal of promotion by MAG; assay type: cell-based; conditions: for % Reversal of Promotion: PND 2 DRG neurons; for effect on the promotion of neurite outgrowth by MAG: increasing concentrations of sugar, text summary of TABLE 2
T1 construct: host or cells: dhfr-deficient CHO cells (CHO-MAG2)
T1 sequence (P07722 20-626): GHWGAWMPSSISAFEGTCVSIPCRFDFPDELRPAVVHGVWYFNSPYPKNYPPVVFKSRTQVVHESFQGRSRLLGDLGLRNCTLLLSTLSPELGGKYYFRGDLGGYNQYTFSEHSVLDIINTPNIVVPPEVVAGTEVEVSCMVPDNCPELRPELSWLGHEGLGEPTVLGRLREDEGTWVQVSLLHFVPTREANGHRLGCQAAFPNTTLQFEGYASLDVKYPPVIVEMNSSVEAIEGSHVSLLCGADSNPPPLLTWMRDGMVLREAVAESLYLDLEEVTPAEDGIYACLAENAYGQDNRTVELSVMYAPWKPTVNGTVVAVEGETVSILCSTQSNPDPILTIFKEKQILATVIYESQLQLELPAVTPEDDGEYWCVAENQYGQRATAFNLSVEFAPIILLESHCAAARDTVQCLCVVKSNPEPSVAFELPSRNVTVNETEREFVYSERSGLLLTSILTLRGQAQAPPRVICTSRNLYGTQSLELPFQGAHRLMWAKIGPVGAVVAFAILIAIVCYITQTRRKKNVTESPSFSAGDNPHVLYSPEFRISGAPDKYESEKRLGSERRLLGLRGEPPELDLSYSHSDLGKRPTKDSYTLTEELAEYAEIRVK
Protocol: (§1) Confluent monolayers of control and MAG-expressing CHO cells were established over a 24-hour (h) period in individual chambers of an 8-well tissue culture slide (Lab-Tek). […] Culture medium was SATO containing 2% FCS. Where indicated, 20 mU of VCS was included throughout the coculture period (see Example 4), or monolayers were incubated with small oligosaccharides for one hour before adding the neuronal cell suspension and included throughout the coculture period. After periods of time as indicated, the cocultures were fixed for 30 min with 4% paraformaldehyde and permeabilized with ice-cold methanol for 2 min. The cells were then blocked for 30 min with DMEM containing 10% FCS and incubated for 2 h with a rabbit polyclonal antibody against the neuronal marker GAP43 (1:4000). Cells were washed three times with PBS-BSA (2%) and then incubated for 30 min at room temperature with a biotinylated donkey anti-rabbit Ig (1:300, Amersham), washed three times, and incubated with streptavidin-conjugated Texas Red (1:300, Amersham) for 30 min. After three more washes, the slides were mounted in Permfluor (Baxter) and viewed with a Zeiss fluorescent microscope. The length of the longest neurite for each GAP43-positive neuron was determined using the Biological Detection System image analysis program (Pittsburgh).
The transfected CHO cell assay described in Example 2 may also be used to screen and identify agents that alter neurite growth properties of a particular neuronal cell type and age in a MAG-dependent fashion. Neurite outgrowth was compared for cerebellar (TABLE 1) and DRG (TABLE 2) neurons from PND 2 animals, grown on MAG-expressing and control CHO cells as described in Example 2. Where indicated, small sialic acid-bearing sugars were included in the co-cultures at increasing concentrations. 100% inhibition was taken as the difference in length of neurites on control and MAG-expressing CHO cells. Results are the mean of at least two experiments, with at least 150 neurons measured for each experiment. DD-NANA=2,3-dideoxy sialic acid; SL=sialo 2,3-α lactose.
Single cell suspensions of different neurons at various postnatal ages were washed and resuspended in phosphate-buffered saline (PBS). Approximately 2×10^6 cells were incubated with 50 mU of Vibrio cholera sialidase (VCS, Calbiochem) (a neuraminidase) in a final volume of 0.5 ml for 2 hours at 37° C. Neurons were washed with PBS and resuspended in SATO medium containing 2% FCS for neurite outgrowth experiments, or in PBS for neurite binding assays.

MAG [2] = biological target: T2, MAG (Rattus norvegicus, UniProt P07722); assay: Radiolabelled MAG-Fc binding to cerebellar neurons; conditions: PND1 cerebellar neurons; antibody 5 μg/ml or sialidase treatment of neurons before binding
T2 construct: consisting of the extracellular domain of MAG fused to the Fc region of IgG (MAG-Fc); host or cells: COS cells
T2 sequence (P07722 20-516 limits assumed): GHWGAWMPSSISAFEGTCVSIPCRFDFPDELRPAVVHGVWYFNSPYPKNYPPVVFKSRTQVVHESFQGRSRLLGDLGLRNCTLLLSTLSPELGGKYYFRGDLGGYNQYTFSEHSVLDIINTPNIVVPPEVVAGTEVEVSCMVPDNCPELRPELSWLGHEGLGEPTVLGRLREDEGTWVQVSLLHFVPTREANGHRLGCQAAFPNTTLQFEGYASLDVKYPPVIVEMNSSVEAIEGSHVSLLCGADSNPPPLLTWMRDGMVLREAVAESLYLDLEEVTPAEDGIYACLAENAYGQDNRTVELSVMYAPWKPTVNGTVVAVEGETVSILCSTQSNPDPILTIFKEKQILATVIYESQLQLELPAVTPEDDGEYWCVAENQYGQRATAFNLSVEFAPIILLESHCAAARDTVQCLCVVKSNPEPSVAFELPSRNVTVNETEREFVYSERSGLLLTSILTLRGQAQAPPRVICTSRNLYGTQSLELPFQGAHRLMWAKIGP
Protocol: FIG. 4. sialic acid-dependent Binding of MAG to Cerebellar and DRG Neurons. Radiolabelled MAG-Fc (solid bars) was allowed to bind to PND 1 cerebellar and DRG neurons. Incubations were also carried out in the presence of 5 μg/ml of MAG 513 monoclonal antibody (dark hatched bars) or with neurons that had been desialyated (speckled bars). Each experiment was carried out in quadruplicate. The results are the mean of 3 experiments.
MAG binds to all types of neurons tested in a sialic acid-dependent fashion (Kelm et al., Curr. Biol., 4, pp. 965-72 (1994)). […] Sialidase is an enzyme which removes sialic acid from glycoconjugates.

[3] = system: retinal ganglion (RG), hippocampal (HN), motor neurons (MN) and superior-cervical ganglion (SCG); assay: Neurite outgrowth of different neuronal cell types on MAG-expressing versus control CHO cells; assay type: cell-based, rat; conditions: neurons from one-day old rats (PND1)
Protocol: FIG. 3. Effect of MAG on Neurite Outgrowth from Different Neuronal Cell Types. Various neurons from PND1 animals were isolated and grown overnight on MAG-expressing (dark hatched) or control (light hatched) CHO cells. Average neurite length was calculated as described in FIG. 1.
as §1, with “Cells were washed three times with PBS-BSA (2%) and then incubated for 30 min at room temperature with a biotinylated donkey anti-rabbit Ig (1:300, Amersham), washed three times, and incubated with streptavidin-conjugated Texas Red (1:300, Amersham) for 30 min. After three more washes, the slides were mounted in Permfluor (Baxter) and viewed with a Zeiss fluorescent microscope.” left out

DRG neurons = assay: Neurite outgrowth of DRG neurons on MAG-expressing versus control CHO cells; assay type: cell-based, rat
Protocol: FIG. 2. Effect of MAG on Neurite Outgrowth from DRG Neurons of Different Ages. […] 1.
as §1

cerebellar neurons [4] = assay: Neurite outgrowth of cerebellar neurons on MAG-expressing versus control CHO cells; assay type: cell-based, rat; conditions: all ages tested, four MAG-expressing CHO cell lines
Protocol: FIG. 1. Inhibition of Neurite outgrowth from Cerebellar Neurons by MAG. Cerebellar neurons from post-natal day (PND) 1, 4 and 7 were grown overnight on a monolayer of MAG-expressing (clear bars) or control transfected CHO cells (hatched bars). Neurons were stained for GAP-43 antigen and neurite length was measured and the average […] length calculated from at least 150 measurements (+/−SEM).
as §1, with “Cells were washed three times with PBS-BSA (2%) and then incubated for 30 min at room temperature with a biotinylated donkey anti-rabbit Ig (1:300, Amersham), washed three times, and incubated with streptavidin-conjugated Texas Red (1:300, Amersham) for 30 min. After three more washes, the slides were mounted in Permfluor (Baxter) and viewed with a Zeiss fluorescent microscope.” left out

cerebellar neurons [5] = conditions: Mukhopadhyay et al.; cited from earlier work
[6] = 1 mM sugar, MAG-expressing CHO cells

% Reversal of Promotion (MAG [1]; [6]): 0% | % Reversal of Promotion (MAG [1]; 10 mM sugar, MAG-expressing CHO cells): 51% | % Reversal of Promotion (MAG [1]; 20 mM sugar, MAG-expressing CHO cells): 97% | % Reversal of Promotion (MAG [1]; 20 mM sugar, control CHO cells): 0%
Molecule: CC(=O)N[C@H]1[C@H]([C@H](O)[C@H](O)CO)OC(C(=O)O)=C[C@@H]1O [DD NANA, 2,3-dideoxy sialic acid]
effect on the promotion of neurite outgrowth by MAG (MAG [1]): abolished the promotion of neurite outgrowth by MAG completely

% Reversal of Promotion (MAG [1]; [6]): 0% | % Reversal of Promotion (MAG [1]; 5 mM sugar, MAG-expressing CHO cells): 96% | % Reversal of Promotion (MAG [1]; 18 mM sugar, MAG-expressing CHO cells): 98% | % Reversal of Promotion (MAG [1]; 18 mM sugar, control CHO cells): 0%
Molecule: CC(=O)N[C@H]1[C@H]([C@H](O)[C@H](O)CO)O[C@@](O[C@H]2[C@@H](O)[C@@H](CO)O[C@@H](O[C@H]3[C@H](O)[C@@H](O)C(O)O[C@@H]3CO)[C@@H]2O)(C(=O)O)C[C@@H]1O (stereo partly drawn) [SL, sialo 2,3-α lactose]
effect on the promotion of neurite outgrowth by MAG (MAG [1]): abolished the promotion of neurite outgrowth by MAG completely

Molecule: sialidase: Vibrio cholera sialidase (a neuraminidase), enzyme which removes sialic acid from glycoconjugates
effect on binding of MAG to cerebellar neurons (MAG [2]): abolished | effect on promotion of axonal outgrowth by MAG (MAG [1]; newborn (PND1) DRG neurons desialyated with sialidase): completely abolished

B1: MAG: myelin-associated glycoprotein expressed on the surface of transfected CHO cells (protein, UniProt P07722 20-626, looked up)
Myelin-associated glycoprotein: T1 sequence (P07722 20-626)
effect on neurite growth [3]: potent inhibitor of neurite growth in all cell types tested | inhibition of neurite outgrowth (DRG neurons; DRG neurons from adult rats): about 40% | neurite length on MAG-expressing cells compared to control cells (DRG neurons; DRG neurons from two-day old rats): almost twice as long | inhibition of neurite outgrowth compared to control cells (cerebellar neurons [4]): at least 70%

B2: Po: another myelin protein expressed by CHO cells, specificity control (protein, UniProt P25189 30-248, looked up)
Myelin protein P0: IVVYTDREVHGAVGSRVTLHCSFWSSEWVSDDISFTWRYQPEGGRDAISIFHYAKGQPYIDEVGTFKERIQWVGDPRWKDGSIVIHNLDYSDNGTFTCDVKNPPDIVGKTSQVTLYVFEKVPTRYGVVLGAVIGGVLGVVLLLLLLFYVVRYCWLRRQAALQRRLSAMEKGKLHKPGKDASKRGRQTPVLYAMLDHSRSTKAVSEKKAKGLGESRKDKK
effect on neurite outgrowth of CHO cells expressing the protein (cerebellar neurons [5]): lack of effect
